Results published in patent US11819492B2, “Natural product derivatives for inhibiting cellular necroptosis, ferroptosis and oxytosis” (Institut National de la Sante et de la Recherche Medicale …, priority 2016, dated 2023).

How the values were obtained:
[1] = test system: rat embryonic myoblastic H9C2 cells; test: H2O2-induced necrosis, LDH release assay; format: cell-based; conditions: 10 μM, 2 hours pretreatment, 800 μM H2O2 for 24 hours, FIG. 17
Experimental: The rat embryonic myoblastic H9C2 cells were cultured at 10,000 cells/well in 96-well-plates for 24 hours at 37° C./5% CO2. […] LB corresponds to cells treated with a lysis buffer (100% of cell death). Cell cytotoxicity was determined by a colorimetric assay quantitatively measuring lactate dehydrogenase (LDH) released […].

[2] = test system: Porcine LLC-PK1 cells (kidney proximal tubule cell line); test: Cold-induced cell death (cold storage), MTS viability assay; format: cell-based; conditions: 0.01-50.00 μM, 24 hours at 4° C., FIGS. 16a, 16b
Experimental: At it was previously shown (Ahlenstiel et al. Transplantation […], 81(2), 231-239), cold storage induces a cell-death process. Porcine LLC-PK1 cells (kidney proximal tubule cell line) were stored at approximately 4° C. during 24 hours with or without the tested molecules. […] Cells were then incubated at 37° C., 5% CO2 before performing MTS viability assay. Cell viability was monitored using CellTiter 96® AQueous Non-Radioactive Cell Proliferation Assay (Promega, Fitchburg, WI, USA), based on the water-soluble tetrazolium compound MTS (3-[4,5-dimethylthiazol-2-yl]-5-[3-carboxymethoxy-phenyl]-2-[4-sulfophenyl]-2H-tetrazolium, inner salt) according to the manufacturers instructions.

[3] = test system: Human retinal pigment epithelial cell line, ARPE-19; conditions: 200 μM, Hanus et al. 2016; cited from earlier work

| Structure (SMILES) | protection from death induced by H2O2 (LDH release) [1] | protection from death induced by cold storage [2] | inhibition of NaIO3-induced necroptosis in retinal pigment epithelial cell line [3] |
| --- | --- | --- | --- |
| CN1C(=O)NC(Cc2c[nH]c3c(Cl)cccc23)C1=O (stereo not drawn) [Nec-1s, Necrostatin-1s, reference compound] | less effective | inactive |  |
| CN1C(=O)C(Cc2c[nH]c3ccccc23)NC1=S (stereo not drawn) [necrostatin-1] |  |  | inhibited |
